“Also recorded” adds a separate entry of the source.
Legend:
Type in all cases: cell-based
[1] = test system: human precision cut liver slices; assay: Precision cut liver slice (PCLS) in vitro human NASH model, soluble outputs (collagen 1α1, IL-6, TIMP-1 ELISA)
Protocol: PCLSs were prepared from resected liver tissue and rested for 24 hours to allow the post-slicing stress period to elapse before experiments began. […] PCLS culture media, including lipids and compounds, was refreshed at 24 hrs intervals. […] PCLSs were prepared from an n=1 individual human liver. The human livers are normal margins of near-to-normal human liver obtained during a surgical resection. Tissue culture supernatant (n=3 or n=4 per group) were collected every 24 hrs and snap frozen for quantification of the soluble outputs described below. At harvest, n=2 PCLSs were harvested for a triglyceride assay, n=2 PCLSs were harvested for frozen sections (Oil Red O staining), n=2 PCLSs were formalin-fixed, paraffin embedded (FFPE) for immunohistochemistry, and n=2 PCLSs were snap frozen for RNA isolation (Table 4, Groups 1˜4 only).

[2] = test system: 3D InSight Human Liver Microtissues; assay: 3D InSight Human Liver Microtissues, DNL condition, intratissue triglyceride content (7 days)
Protocol: After a 7 day treatment with dosings at days 0, 2 and 5, intratissue lipid accumulation was measured using Triglyceride-Glo™ Assay (Promega). In addition, metabolic activity of the treated Liver Microtissues (MTs) and cytotoxicity were assessed by measurement of ATP content at day 7 of treatment (CellTiter-Glo® 2.0 Cell Viability Assay, Promega) and LDH release between days 0-2, days 2-5 and days 5-7 (LDH-Glo™ Cytotoxicity Assay, Promega), respectively. Leftover supernatant collected on treatment days 2, 5 and 7 were stored frozen for further analysis. […] Experimental readout measurements comprised collection and freezing of supernatants for LDH measurement on days 2, 5 and 7. Measurement of LDH released into supernatant was analyzed using an LDH-Glo™ Cytotoxicity Assay (Promega). Measurement of ATP content in single MTs after 7 days of treatment with was analyzed using a Cell Titer Glo™ 2.0 Cell Viability Assay (Promega). Measurement of intratissue triglyceride (TG) content after 7 days of treatment was analyzed using a Triglyceride-Glo™ Assay (Promega). […] Total TG content in MTs at day 7 of treatment was measured with Triglyceride-Glo™ Assay (Promega), according to InSphero AG protocol. The amount of glycerol/MT [pmol/MT] was calculated using linear regression to a standard curve. […]

[3] = test system: primary isolated human stellate cells (HSC); assay: Primary human hepatic stellate cells stimulated with TGF-β1, total collagen (in vitro fibrosis study)
Protocol: Primary isolated human stellate cells (HSC) were investigated in the study. The cells were maintained under standard culture conditions and in established culture medium.
Study Model: Viability screening and in vitro fibrosis study, 24 well plate format, 4 day stimulation with recombinant human TGF-β1. In this study, 2.5 and 10 ng/ml TGF-β1 were used.
Primary HSCs were seeded on t=day-1 and cultured in 24 well plates for 24 hours. […] Cells were incubated for an additional 96 hours (t=day 4). Conditioned medium samples were collected for expression analysis of secreted proteins. All wells were used for an alamarBlue assay to assess cell viability/metabolic activity. A separate plate was used at t=day 0 as reference for the alamarBlue assay. Next, the cell-matrix fraction was collected for measurement of total collagen and cell protein levels.
Both test compounds were dissolved in DMSO. Working concentrations were prepared from a stock concentration that is 1000-fold that of the highest working concentration. All controls were incubated with the same DMSO concentration as that present in the highest working concentration.
Total Collagen assay was performed according to the manufacturer's protocol.
Total Protein assay, for use with the Total Collagen assay, was performed according to the manufacturer's protocol. Protein levels were used to correct for differences in cell contents between samples.
Significance of differences between the groups was calculated either parametrically or non-parametrically, using the computer program SPSS. For nonparametric calculations, a Kruskal-Wallis test for several independent samples was used, followed by a Mann-Whitney U-test for independent samples. For parametric calculations, a One-way ANOVA for multiple comparisons was used, followed by Dunnett or Bonferroni's correction.

[4] = test system: 3D InSight Human Liver Microtissues (NASH condition); assay: 3D InSight Liver NASH model, intratissue triglyceride content (10 days)
Protocol: […]. InSphero's 10-day NASH treatment scheme was applied with compound dosing at days 0, 3, 5 and 7 of treatment. […]. At day 5 of treatment, secreted cytokine levels were measured (LUMINEX™), at days 7 and 10 released procollagen 1 was quantified and at day 10 of treatment intratissue triglyceride content was determined. The release of lactate dehydrogenase (LDH) into culture supernatant was measured at days 3, 5, 7 and 10, in order to detect possible cytotoxicity caused by the treatments. After first data evaluation, released procollagen 3 was measured in supernatants of selected day 10 samples. […]
Cells were dosed on days 0, 3, 5 and […]. Experimental readout measurements comprised collection and freezing of supernatants for LDH measurement on days 3, 5, 7 and 10. Measurement of LDH released into supernatant was analyzed using an LDH-Glo™ Cytotoxicity
Assay (Promega). Measurement of intratissue triglyceride (TG) content after 10 days of treatment was analyzed using a Triglyceride-Glo™ Assay (Promega). […] Measurement of IL-6, IL-8, IP-10, MCP-1, MIP-1α and TNF-α content was analyzed using Magnetic Luminex® Performance Assay, Human XL Cytokine Discovery Base Kit (R&D systems).
. Total TG content in MTs at day 10 of treatment was measured with Triglyceride-Glo™ Assay (Promega), according to InSphero AG protocol. […]

Cc1nc(-c2cc(C(=O)N3CCC(c4ccc(C#N)cc4)CC3)c(C)cc2C2CCC2)n[nH]1 [Compound 001-152, 4-(1-(4-Cyclobutyl-2-methyl-5-(5-methyl-4H-1,2,4-triazol-3-yl)benzoyl)piperidin-4-yl)benzonitrile]
fibrosis marker collagen 1α1 in culture supernatant [1]: dose and time-dependent decrease
intratissue Triglyceride content [2]: reduces cellular triglycerides
collagen production [3]: inhibits collagen production directly; also recorded: inhibits as effectively as positive control Alk5 inhibitor
intratissue Triglyceride content (NASH-induced) [4]: reduced cellular triglycerides

Reference: patent US20250017938A1, “COMBINATION THERAPIES OF FASN INHIBITORS WITH THYROID HORMONE RECEPTOR AGONISTS” (Sagimet Biosciences Inc., priority 2023, published 2025)
